According to patent publication US20200093103A1, “BREEDING WATER FOR ANGUILLIFORMES AND METHOD FOR REARING ANGUILLIFORMES” (SHIN NIPPON BIOMEDICAL LABORATORIES, LTD., priority 2016, published 2020):

Tests used:
[1] = system: Anguilla japonica leptocephali; experiment: Induction of Anguilla japonica metamorphosis by T4 treatment in 23° C. breeding water; assay type: in vivo; design: key: Y: Metamorp completed (seed production completed).; Nd: Dead
Source text: (§1) Stage 1: Starting phase of metamorphosis. The rostral end is rounded, and intestinal degeneration starts.
(§2) Stage 2: Peak phase of metamorphosis. Intestinal degeneration becomes pronounced. In the second half, the anus reaches to near the last vertical blood vessel (VBV last).
(§3) Stage 3: Late phase of metamorphosis. The preanal length (PAL) becomes equal to or shorter than the last vertical blood vessel length (VBV last Length) (PAL VBV last Length). The body height is apparently low.
(§4) Stage 4: Pre-glass eel stage. Almost the eel form, but the body height still remains. Melanophores on the body surface or endogenous melanophores are not yet seen.
(§5) Elver stage: Juvenile stage. Food intake can be identified.
(§6) A thyroid hormone (e.g., thyroxine (T4)) is adjusted to 50 to 100 mM in a 1- to 2-mL volume messflask. As a solvent, known solvents (water, alcohol) can be used. Ethanol is preferably used as the solvent.
(§7) For example, using ethanol as a solvent, T4 adjusted to 50 mM is diluted 500-fold, 5,000-fold, and 50,000-fold, respectively, and adjusted to […], 1 μM, and 100 nM. A feed can be prepared in this manner.
(§8) Artificial seawater is added to a breeding vessel, and 1/1000 of the […] T4 is added to prepare […] T4 breeding water.
(§9) Half of the breeding water is replaced every two days with breeding water of the same concentration. In the case where the concentration is changed, for example, in the case of changing from 10 nM to 2 nM, 80% to the breeding water is removed, and unadjusted artificial seawater is newly added to make 1 L.
(§10) Leptocephali visually considered to have reached a total length of 40 mm (or may be 30 mm to 50 mm, may be 35 mm to 45 mm, or may also be 35 mm or more, 40 mm or more, or 45 mm or more) are selected, anesthetized with 2-phenoxyethanol, and then photographed, and the total length of each larva is measured using an image analyzing device.
(§11) The larvae are placed in 10 nM T4 breeding water and then placed in an incubator set at 23° C., and breeding is started. In first one week, observation is performed every two days, and half of the 10 nM T4 breeding water is replaced each time. The average amount of thyroid hormone in the breeding water in stage 1 is 1 nM to 100 nM, for example, and may also be 3 nM to 30 nM, or 5 nM to 20 nM.
(§12) For larvae visually judged to have reached the second half of stage 2, the concentration of the breeding water is changed. The breeding water is diluted 5-fold or 10-fold and adjusted to 2 nM or 1 nM T4, and breeding is continued. The average amount of thyroid hormone in the breeding water in stage 2 may be, as compared with the breeding water of stage 1, diluted 2-fold to 20-fold, diluted 3 to 15-fold, or diluted 5 to 10-fold as described above. The average amount of thyroid hormone in the breeding water in stage 2 is 0.1 nM to 20 nM, for example, and may also be 0.5 nM to 10 nM, 1 nM to 5 nM, or 1 nM to 2 nM.
For larvae visually judged to have reached stage 3, the breeding water is quickly changed 0.2 nM T4 breeding water, which is a 5-fold dilution of 1 nM T4 breeding water, and further changed to 0.1 nM T4 breeding water on the following day. […] Also, in larvae whose anus position has not reached the last vertical hemal spine, when they are judged to be on the brink of stage 3, the concentration is changed as above. […]

[2] = system: Anguilla japonica leptocephali; experiment: as above; assay type: in vivo; design: key: Y: Metamorphosis completed (seed production completed).; Nd: Dead.; Nf: Food intake unidentified.; Ng: Not metamorphosed into glass eels
Source text: as §1, §2, §3, §4, §5, §6, §7, §8, §9, §10, §11, §12
For larvae visually judged to have reached stage 3, the breeding water is quickly changed 0.2 nM T4 breeding water, which is a 5-fold dilution of 1 nM T4 breeding water, and further changed to 0.1 nM T4 breeding water on the following day. […] Also, in larvae whose anus position has not reached the last vertical hemal spine, when they are judged to be on the brink of stage 3, the concentration is changed as above. The average amount of thyroid hormone in the breeding water in stage 3 may be, as compared with the breeding water of stage 2, diluted 2-fold to 50-fold, diluted 3 to 15-fold, diluted 4 to 6-fold, or diluted 5-fold as described above. The average amount of thyroid hormone in the breeding water in stage 3 is 0.01 nM to 2 nM, for example, and may also be 0.05 nM to 1 nM, 0.1 nM to 0.5 nM, or 0.1 nM to 0.2 nM. […] That is, the concentration may be changed such that the thyroid hormone becomes undetectable in the breeding water in the course of stage 3.
In stage 3, breeding is continuously performed in the 0.1 nM T4 breeding water. […]

Q: `N[C@@H](Cc1cc(I)c(Oc2cc(I)c(O)c(I)c2)c(I)c1)C(=O)O` [T4, thyroxine] was tested. Which Elver ([1]; individual Exp 5-4, 175 days old, total length 43.5 mm at start of T4 treatment) did it give?
A: Y

Q: And the Elver ([1]; individual Exp 5-5, 174 days old, total length 36.1 mm at start of T4 treatment)?
A: Y

Q: And the Elver ([1]; individual Exp. 5-1, 175 days old, total length 38.5 mm at start of T4 treatment)?
A: Y

Q: What about the Elver ([1]; individual Exp. 5-2, 175 days old, total length 41.3 mm at start of T4 treatment) of the same molecule?
A: Y

Q: What about the Elver ([1]; individual Exp. 5-3, 175 days old, total length 41.7 mm at start of T4 treatment) of the same molecule?
A: Y

Q: And the Elver ([2]; individual Exp 6-2, 129 days old, total length 38.1 mm at start of T4 treatment)?
A: Y

Q: And the Elver ([2]; individual Exp 6-3, 129 days old, total length 37.4 mm at start of T4 treatment)?
A: Y

Q: And the Elver ([2]; individual Exp 6-4, 129 days old, total length 36.6 mm at start of T4 treatment)?
A: Y

Q: And the Elver ([2]; individual Exp 6-5, 129 days old, total length 36.4 mm at start of T4 treatment)?
A: Ng

Q: And the Elver ([2]; individual Exp 6-6, 129 days old, total length 34.6 mm at start of T4 treatment)?
A: Nf

Q: And the Elver ([2]; individual Exp. 6-1, 129 days old, total length 40.6 mm at start of T4 treatment)?
A: Y
